In patent publication US20190008779A1, “GEMCABENE COMPOSITIONS AND METHODS OF USE THEREOF” (GEMPHIRE THERAPEUTICS INC., priority 2017, published 2019):
Like-named read-outs stand apart in the source and are kept apart here. Blank lines part the entries; values can stand above or below the molecule they belong to.

Key:
[1] = Pharmacokinetic analysis after a single oral dose to male dogs (plasma atorvastatin, metabolites, gemcabene); assay type: in vivo, beagle dogs; conditions: administered in the absence of atorvastatin calcium versus with atorvastatin calcium (FIG. 15)
[2] = system: hypercholesterolemic human subjects; conditions: cited from earlier work
[3] = in vivo; cited from earlier work
HMG-CoA reductase = target: T1, HMG-CoA reductase (Homo sapiens, UniProt P04035); conditions: cited from earlier work
T1 sequence (P04035 1-888): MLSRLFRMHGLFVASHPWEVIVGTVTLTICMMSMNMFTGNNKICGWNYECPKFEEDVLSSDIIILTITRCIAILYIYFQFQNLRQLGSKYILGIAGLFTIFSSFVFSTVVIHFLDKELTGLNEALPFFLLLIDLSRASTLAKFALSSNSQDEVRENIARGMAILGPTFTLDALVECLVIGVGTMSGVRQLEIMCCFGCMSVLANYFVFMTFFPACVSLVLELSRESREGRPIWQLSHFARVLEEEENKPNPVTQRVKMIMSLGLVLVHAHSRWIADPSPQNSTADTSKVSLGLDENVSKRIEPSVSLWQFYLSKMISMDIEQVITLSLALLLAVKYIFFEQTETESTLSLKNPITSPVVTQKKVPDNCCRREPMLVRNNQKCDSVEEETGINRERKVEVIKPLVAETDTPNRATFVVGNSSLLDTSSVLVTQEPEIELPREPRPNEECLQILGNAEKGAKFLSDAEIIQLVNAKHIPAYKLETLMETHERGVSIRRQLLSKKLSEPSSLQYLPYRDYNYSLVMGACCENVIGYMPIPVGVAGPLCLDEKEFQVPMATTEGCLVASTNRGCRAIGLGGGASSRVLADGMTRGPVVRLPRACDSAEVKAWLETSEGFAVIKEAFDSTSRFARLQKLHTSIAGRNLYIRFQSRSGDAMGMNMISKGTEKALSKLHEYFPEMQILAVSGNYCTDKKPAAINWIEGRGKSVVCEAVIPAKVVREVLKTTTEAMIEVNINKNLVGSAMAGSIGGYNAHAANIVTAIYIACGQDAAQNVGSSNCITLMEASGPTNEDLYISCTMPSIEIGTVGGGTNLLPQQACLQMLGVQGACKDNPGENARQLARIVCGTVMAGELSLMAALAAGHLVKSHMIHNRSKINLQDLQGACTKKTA

pharmacokinetic profile of gemcabene [1]: essentially the same
SMILES: CC(C)(CCCCOCCCCC(C)(C)C(=O)O)C(=O)O [gemcabene calcium, 6,6′-oxybis(2,2-dimethylhexanoic acid)]
triglycerides ([2]; patients having type IIb hyperlipidemia, certain doses with a statin, versus either alone): surprising ability to lower triglycerides | LDL-C levels ([2]; patients on a stable dose of statin not able to reach the target LDL-C goal): further reduce LDL-C levels | plasma levels of LDL cholesterol (LDL-C) ([2]; separate administration with a statin, versus a statin alone): significantly reduce | fibrinogen ([2]; some doses with a statin, hypercholesterolemic human subjects with elevated fibrinogen levels): lower fibrinogen | c-reactive protein ([2]; with a statin, versus statin treatment alone): reduce c-reactive protein to an extent greater than the statin treatment alone | effect on the pharmacokinetics of simvastatin and atorvastatin [3]: not to significantly affect

SMILES: CC(C)c1c(C(=O)Nc2ccc(O)cc2)c(-c2ccccc2)c(-c2ccc(F)cc2)n1CC[C@@H](O)C[C@@H](O)CC(=O)O [4-hydroxy-atorvastatin acid]
pharmacological activity (inhibitory activity on HMG-CoA reductase) (HMG-CoA reductase): pharmacologically equipotent to parent atorvastatin | pharmacological activity (inhibitory activity on HMG-CoA reductase) (HMG-CoA reductase; listed as 4-hydroxy-atorvastatin): active towards HMG-CoA reductase

SMILES: CC(C)c1c(C(=O)Nc2ccccc2O)c(-c2ccccc2)c(-c2ccc(F)cc2)n1CCC1CC(O)CC(=O)O1 (centres unmarked) [2-hydroxy-atorvastatin lactone]
pharmacological activity (inhibitory activity on HMG-CoA reductase) (HMG-CoA reductase): pharmacologically inactive

SMILES: CC(C)c1c(C(=O)Nc2ccc(O)cc2)c(-c2ccccc2)c(-c2ccc(F)cc2)n1CCC1CC(O)CC(=O)O1 (centres unmarked) [4-hydroxy-atorvastatin lactone]
pharmacological activity (inhibitory activity on HMG-CoA reductase) (HMG-CoA reductase): pharmacologically inactive

SMILES: CC(C)c1c(C(=O)Nc2ccccc2)c(-c2ccccc2)c(-c2ccc(F)cc2)n1CC[C@@H]1C[C@@H](O)CC(=O)O1 [atorvastatin lactone]
pharmacological activity (inhibitory activity on HMG-CoA reductase) (HMG-CoA reductase): pharmacologically inactive

SMILES: CC(C)c1c(C(=O)Nc2ccccc2O)c(-c2ccccc2)c(-c2ccc(F)cc2)n1CCC(O)CC(O)CC(=O)O (centres unmarked) [2-hydroxy-atorvastatin acid]
pharmacological activity (inhibitory activity on HMG-CoA reductase) (HMG-CoA reductase): pharmacologically equipotent to parent atorvastatin | pharmacological activity (inhibitory activity on HMG-CoA reductase) (HMG-CoA reductase; listed as 2-hydroxy-atrovastatin): active towards HMG-CoA reductase
